Here are results for one compound from US20160331754A1, “THERAPIES FOR TREATING CANCERS” (GILEAD SCIENCES, INC., priority 2014, published 2016).

By inhibition is commonly meant the drop in the measured response relative to a control, in per cent.

Data set [1] relates to pS6RP Ser235/236. In words: Flow cytometry, basal S6RP phosphorylation in CD34+ progenitor cells from MF patients. In kind it is cell-based, human. The conditions noted are these: data not shown. As to the method:
PBMCs were isolated from whole blood of myelofibrosis (MF) patients who had not received treatments (i.e. naïve patients) or received ruxolitinib (i.e. rux-treated patients). The cells were treated with 0.02, 0.2, or 2.0 μM of Compound B or vehicle (0.1% DMSO in 0.1% FBS/RPMI) for 2 hours at 37° C. The cells were then fixed, permeabilized, and stained for FACS analysis. Antibodies specific to p-AKT Ser473 and pS6RP Ser235/236 were used to detect AKT phosphorylation (p-AKT) and S6RP phosphorylation (p-S6RP) in CD34^+/CD3^−/CD14^−/CD19/CD66^− (BD Biosciences) gated cells using flow cytometry. The percentage of basal (i.e. untreated with TPO) AKT and S6RP phosphorylation were normalized to vehicle control. A two-tailed paired t-test (GraphPad Prism) was used to calculate p-values. Values of p<0.05 were considered significant.
Similar studies were conducted with PI3K inhibitors Compounds C and D. PBMC from MF patients had received ruxolitinib (rux) and MF patient had received Compound A. The cells were treated with Compounds C or D at 0, 20.0, 200.0, 2000.0 nM for 2 hours at 37° C. Cells were treated with TPO for 10 minutes. The percentage of basal p-AKT and p-S6RP levels were normalized to vehicle control and those of TPO-treated were normalized to TPO-treated vehicle control. The PI3Kδ inhibitors Compound C is referred by the chemical names of (S)-2-(1-((9H-purin-6-yl)amino)ethyl)-6-fluoro-3-phenylquinazolin-4(3H)-one.

A short description of data set [2]: Plasma concentration in patient at clinical dose. The conditions noted are these: clinical dose 150 mg, twice a day. In kind it is in vivo, human.
The test system of data set [3] is WIL2-S. Nature of the data set: ADCC LDH release assay, purified NK cells against WIL2-S target cells. In kind it is cell-based, human. The conditions noted are these: for Percentage of maximum obinutuzumab-mediated ADCC: Obinutuzumab 10 μg/mL, E:T=10:1, 4 h; for Percentage of maximum ADCC, rituximab: rituximab 10 μg/mL, FcγRIIIa 158F/F. The text has this: PI3K isoforms may play a role in immune effector cells and FcγR signaling. The effects of Compound B on the immune effector functions of obinutuzumab and rituximab in lymphoma cell lines were examined. To characterize the antibody-dependent cellular cytotoxicity (ADCC), PBMCs were isolated from healthy individuals with FcγRIIIa genotypes of 158F/F, 158F/V, or 158V/V (Leuko Paks from AllCells, Alameda, Calif.) using Ficoll density gradient centrifugation. NK cells were enriched using a negative-selection immunomagnetic enrichment kit ([…] Technologies, Vancouver, British Columbia, Canada). Enriched NK cells and target cells WIL2-S, S-DHL-4, or Z-138 were separately pre-incubated for 1 hour with or without Compound B (1/2 dilutions from about 1 mM to about 1 nM). In the last 20 minutes of the pre-incubation, target cells were opsonized with or without rituximab or obinutuzumab (at 10 μg/mL, the saturating concentration with maximal ADCC) at indicated effector-target ratios (E:T). Palivizumab was used as an isotype control. NK and target cells were combined and incubated for 4 hours at 37° C. in 5% CO2. To determine ADCC, […] dehydrogenase (LDH) was measured using a cytotoxicity detection kit (Roche Applied Science, Indianapolis, Ind.). In some assays, antigen-independent cellular cytotoxicity (AICC) which represented spontaneous release by NK cell killing of target cells without antibodies were used as control.
LDH release assays were conducted at 4 hours using WIL2-S line as target and purified NK cells (E:T=10:1). The results (n=9) were normalized as % of maximum ADCC.
(In general: Release of lactate dehydrogenase indicates damage to the cell membrane.)

In data set [4] the test system is autologous B cells. In words: Whole blood (WB) autologous B-cell depletion assay. In kind it is cell-based. As to the method:
Further, whole blood (WB) autologous B-cell depletion and cell-death induction assays were conducted as described in Mossner et al., Blood 115:4393-402, 2010. For cell death assay: Ri-1 DLBCL cells were seeded at 15,000 cells/well in 96-well plates. Cells were preincubated with Compound B or DMSO for 1 hour before the addition of antibody. Plates were incubated at 37° C. in a humidified CO2 chamber for 3 days. Cells were washed once with PBS and treated with Accutase for 15 minutes before being stained with Guava Nexin® reagent and analyzed on the Guava EasyCyte flow cytometer (Merck Millipore).
The percentage of deplete autologous B cells in a whole blood assay may represent the antibody potency.

Values joined by “and” are separate entries in the source; they are usually repeats but may differ in a detail not shown here. Equal values may be shown once.

Turning to `CC[C@H](Nc1ncnc2[nH]cnc12)c1nc2cccc(F)c2c(=O)n1-c1ccccc1` [Compound B, (S)-2-(1-((9H-purin-6-yl)amino)propyl)-5-fluoro-3-phenylquinazolin-4(3H)-one], the “basal p-S6RP level vs untreated cells” value in data set [1] is recorded as “reduced levels”. For the same compound, in data set [2], the “maximal average plasma concentration (Cmax), adjusted for protein binding” value is 0.256 µM. Besides, the “Percentage of maximum obinutuzumab-mediated ADCC” value in data set [3] (Compound B 0.98 nM) is 99% and 91% and 109% and 94% and 96% and 103% and 104% and 101%; in data set [3] (Compound B 1.95 nM), 100% and 89% and 125% and 104% and 106% and 112% and 107%; in data set [3] (Compound B 3.91 nM), 91% and 84% and 102% and 113% and 105% and 108% and 110% and 103%; in data set [3] (Compound B 7.81 nM), 90% and 89% and 98% and 113% and 105% and 109% and 107% and 94%; in data set [3] (Compound B 31.25 nM), 82% and 85% and 102% and 107% and 96% and 95%; in data set [3] (Compound B 62.5 nM) it was 78% and 88% and 103% and 95% and 108% and 112% and 98%. For the same compound, the “Percentage of maximum obinutuzumab-mediated ADCC” value in data set [3] (Compound B 125 nM) was 84% and 87% and 104% and 97% and 111% and 110% and 105% and 94%; in data set [3] (Compound B 250 nM) it was 89% and 91% and 99% and 97% and 95% and 106% and 109% and 102%; in data set [3] (Compound B 500 nM), 79% and 83% and 94% and 92% and 96% and 106% and 104%. The “Percentage of maximum ADCC, rituximab” value was 92% and 108% in data set [3] (Compound B 15.63 nM); 86% and 109% in data set [3] (Compound B 31.25 nM). In data set [3] (Compound B 1000 nM, obinutuzumab 10 μg/mL, FcγRIIIa 158V/V, n=2), the “Percentage of maximum ADCC, obinutuzumab” value was 83% and 82%. The inhibition at […] in data set [3] (Homo sapiens, 250 nM, FcγRIIIa 158V/V genotype, read-out: inhibition of obinutuzumab-mediated ADCC) is below 10%. Further, the “effect on obinutuzumab-mediated ADCC in FcγRIIIa 158F/F or 158F/V genotypes” value in data set [3] (n=2 per genotype, antibody 10 μg/mL) is reported as “did not affect”. Besides, the “Percentage of B-cell depletion WB” value in data set [4] (Compound B alone 100 nM) is 5% and −1% and −3%; in data set [4] (Compound B alone 760 nM), −1% and −4%; in data set [4] (Compound B alone 4200 nM), 0% and 1% and 5%.
